Measured values reported in PMC10284832, “Cyclic di-AMP traps proton-coupled K^+ transporters of the KUP family in an inward-occluded conformation” (Nature Communications, 2023).
One block for each molecule: values may come before it.

Legend:
KimA [1] = target: T1, KimA (Bacillus subtilis, UniProt P96589); test: whole-cell K+ uptake in E. coli LB2003 (flame AAS); type: cell-based; details: c-di-AMP made in the cells by co-expressed CdaA (concentration unknown) versus inactive CdaA D171N; 200 mM HEPES TEA pH 7.5; allosteric site in cytosolic domain
T1 construct: full-length membrane protein, homodimer with swapped cytosolic domains; plasmid pB24KimA, expressed in E. coli LB2003
T1 sequence (P96589 1-607): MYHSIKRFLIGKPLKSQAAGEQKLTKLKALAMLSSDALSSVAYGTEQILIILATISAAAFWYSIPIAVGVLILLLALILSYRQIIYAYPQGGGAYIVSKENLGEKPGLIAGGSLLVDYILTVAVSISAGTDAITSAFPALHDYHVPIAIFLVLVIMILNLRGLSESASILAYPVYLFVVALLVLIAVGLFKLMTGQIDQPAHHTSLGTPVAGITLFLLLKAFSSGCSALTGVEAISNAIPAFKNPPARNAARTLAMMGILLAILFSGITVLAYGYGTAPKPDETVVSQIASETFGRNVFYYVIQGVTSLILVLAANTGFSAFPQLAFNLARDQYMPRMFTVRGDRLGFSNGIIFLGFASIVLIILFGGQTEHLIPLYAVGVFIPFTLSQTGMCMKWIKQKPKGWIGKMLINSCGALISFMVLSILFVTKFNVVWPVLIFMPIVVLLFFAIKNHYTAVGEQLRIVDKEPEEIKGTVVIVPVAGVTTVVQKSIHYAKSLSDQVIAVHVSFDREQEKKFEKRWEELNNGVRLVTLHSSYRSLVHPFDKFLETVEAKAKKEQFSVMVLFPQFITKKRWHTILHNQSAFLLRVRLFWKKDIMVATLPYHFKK

KimA [2] = target: T1, KimA; test: cryo-EM structure ([…] Å in DDM, […] Å in amphipols); type: binding; details: two c-di-AMP per dimer, cytosolic domain sites; co-produced with CdaA; ten-fold molar excess added in DDM
KimA [3] = target: T1, KimA; test: differential scanning fluorometry (CPM dye); type: binding; details: three-fold molar excess c-di-AMP over KimA; KimA purified from cells co-producing CdaA, in DDM; shift fits 48.1 °C (KimA without CdaA) to 54.7 °C; text calls it a further increase although the CdaA sa
KimA [4] = target: T2, KimA (Bacillus subtilis, UniProt P96589, N237A); test: differential scanning fluorometry (CPM dye); details: c-di-AMP binding to variant; method inferred from the DSF section
T2 construct: full-length membrane protein, homodimer with swapped cytosolic domains; plasmid pB24KimA, expressed in E. coli LB2003
T2 sequence (P96589 whole entry N237A, the tested form may be a part): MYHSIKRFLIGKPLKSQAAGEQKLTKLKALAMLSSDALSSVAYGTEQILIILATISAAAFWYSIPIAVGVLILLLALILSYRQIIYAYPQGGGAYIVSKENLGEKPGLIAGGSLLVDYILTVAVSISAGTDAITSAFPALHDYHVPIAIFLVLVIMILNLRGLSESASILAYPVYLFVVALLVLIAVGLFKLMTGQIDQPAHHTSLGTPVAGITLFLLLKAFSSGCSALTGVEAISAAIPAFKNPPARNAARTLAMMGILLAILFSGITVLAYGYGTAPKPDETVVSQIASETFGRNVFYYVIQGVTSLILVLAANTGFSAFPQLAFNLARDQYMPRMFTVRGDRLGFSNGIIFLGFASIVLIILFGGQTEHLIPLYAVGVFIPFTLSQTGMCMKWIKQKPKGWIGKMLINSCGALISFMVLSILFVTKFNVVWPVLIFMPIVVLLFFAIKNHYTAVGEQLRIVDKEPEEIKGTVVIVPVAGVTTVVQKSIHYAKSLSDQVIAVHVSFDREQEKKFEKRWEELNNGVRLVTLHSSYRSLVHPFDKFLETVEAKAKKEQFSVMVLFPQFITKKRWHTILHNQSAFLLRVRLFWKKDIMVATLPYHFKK

KimA [5] = target: T3, KimA (Bacillus subtilis, UniProt P96589, R337A); test: whole-cell K+ uptake in E. coli LB2003 (flame AAS); type: cell-based; details: c-di-AMP made in the cells by co-expressed CdaA (concentration unknown) versus inactive CdaA D171N; 200 mM HEPES TEA pH 7.5; allosteric site in cytosolic domain
T3 construct: full-length membrane protein, homodimer with swapped cytosolic domains; plasmid pB24KimA, expressed in E. coli LB2003
T3 sequence (P96589 whole entry R337A, the tested form may be a part): as the sequence (P96589 whole entry N237A, the tested form may be a part) above, with A237N, R337A counted along it

[6] = target: the molecule itself; test: cryo-EM structure; KimA in DDM at 4.0 mg/ml, purified after co-production with CdaA, ten-fold molar excess of c-di-AMP added after purification; 3.3 Å map with C2 symmetry
[7] = target: the molecule itself; test: cryo-EM structure; KimA reconstituted in amphipols (PMAL C8) at 2.25 mg/ml, purified after co-expression with cdaA; 50 mM NaCl, 50 mM KCl, 20 mM Tris-HCl pH 8; 3.8 Å map with C2 symmetry

% reduction of Vmax (KimA [1]): ~ 64%
dTm (KimA [3]): 6.6 °C
% reduction of Vmax (KimA [5]): ~ 44%
Molecule: Nc1ncnc2c1ncn2[C@@H]1O[C@@H]2COP(=O)(O)O[C@H]3[C@@H](O)[C@H](n4cnc5c(N)ncnc54)O[C@@H]3COP(=O)(O)O[C@H]2[C@H]1O [c-di-AMP]
cryo-EM structure (3.3 Å in DDM, 3.8 Å in amphipols) (KimA [2]): two non-protein densities in the CDs, which were modelled as c-di-AMP
Tm (KimA [4]): while binding of c-di-AMP was still possible

B1: K+/H+ symporter KimA from B. subtilis, in DDM, with bound c-di-AMP (natural protein)
chain: T1 sequence (P96589 1-607)
notes: KimA, K+/H+ symporter of the KUP family, Bacillus subtilis; expressed from pB24KimA; residues 30-606 are compared in the structures (TMD 30-462, cytosolic domain 462-606); Homodimer with swapped cytosolic domains; A ten-fold molar excess of c-di-AMP was added after purification; The construct has a C-terminal HRV-3C protease site; No cleavage is described for the DDM sample; also called KimA WT; …
binding result [6]: binds

B2: K+/H+ symporter KimA from B. subtilis, reconstituted in amphipols, with bound c-di-AMP (natural protein)
chain: T1 sequence (P96589 1-607)
notes: KimA, K+/H+ symporter of the KUP family, Bacillus subtilis; expressed from pB24KimA; released from the Ni-NTA beads by cleavage at the C-terminal HRV-3C protease site; Homodimer with swapped cytosolic domains, upright arrangement of the transmembrane domains; Residues of the 3C site probably remain at the C-terminus after cleavage; also called KimA in amphipols; not shown: His tag (from the …)
binding result [7]: binds
